Laboratory results as given in patent publication US20060111305A1, “Metabolites of certain [1,4]diazepino[6,7,1-ij]quinoline derivatives and methods of preparation and use thereof” (Wyeth, priority 2004, published 2006).
Read-outs that look alike come from different tables or passages of the source. Marks after values point to notes of the source that are not given here.

Columns and labels:
[1] = Incubation of [14C]DCDQ with dog liver microsomes; format: in vitro ADME, beagle dogs
Method: [^14C]DCDQ was mixed with non-radiolabeled DCDQ (1:3 or 1:5) in the incubations. Microsomal incubations consisted of [^14C]DCDQ, magnesium chloride (10 mM) and liver microsomes incubated in 0.5 mL of 0.1 M potassium phosphate buffer, pH 7.4. [^14C]DCDQ (20 μL) in water was added to the incubation tubes containing buffer, magnesium chloride solution and microsomes. After mixing, the tubes were pre-incubated for 2 minutes in a shaking water bath at 37° C. The reactions were initiated by the addition of UDPGA or the NADPH regenerating system. UDPGA was added to incubations as a 50 μL aliquot of a 20 mM solution in water, to give a final concentration of 2 mM. An NADPH regenerating system (30 μL) was added to incubations to evaluate CYP450-mediated metabolism. The NADPH regenerating system consisted of glucose-6-phosphate (2 mg/mL), glucose-6-phosphate dehydrogenase (0.8 units/mL) and NADP^+ (2 mg/mL). Control incubations were conducted under the same conditions, but without the NADPH generating system, UDPGA or microsomes. All incubations were performed in duplicate. Incubations were stopped by the addition of 0.5 mL ice-cold methanol. Samples were vortex-mixed. Denatured proteins were separated by centrifugation at 4300 rpm and 4° C. for 10 minutes (Model T21 super centrifuge, Sorvall). The protein pellets were extracted with 0.5 mL of methanol. The supernatant was combined for each sample, mixed and evaporated to a volume of about 0.3 mL under a nitrogen stream in a Zymark TurboVap LV evaporator (Caliper Life Science, Hopkinton, Mass.). The concentrated sample was centrifuged and aliquots were radioassayed and analyzed by HPLC. This method recovered an average of 92.1% of the radioactivity from the reaction mixture.
To evaluate species differences in cytochrome P450- and UGT-mediated metabolism, [^14C]DCDQ was incubated for 20 minutes with 0.5 mg/mL liver microsomal proteins from mice, rats, dogs or humans in the presence of the NADPH regenerating system or UDPGA. The assay conditions were the same as described above, and DCDQ concentrations were 12 μM and 56 μM for cytochrome P450- and UGT-mediated metabolism, respectively.
A Waters model 2690 HPLC system (Waters Corp., Milford, Mass.) with a built-in autosampler was used for analysis. Separations were accomplished on a Phenomenex Luna C18(2) column (2×150 mm, 5 μm) (Phenomenex, Torrance, Calif.) coupled with a filter (4×2 mm) cartridge. A variable wavelength UV detector set to monitor 250 nm and Flo-One β Model A525 radioactivity flow detector (Perkin Elmer) with a 250 μL LQTR flow cell were used for data acquisition. The flow rate of Ultima Flow M scintillation fluid was 1 mL/min, providing a mixing ratio of scintillation cocktail to mobile phase of 5:1. […]

[2] = Rat plasma metabolite profiles after single oral 5 mg/kg [14C]DCDQ; format: in vivo, Sprague-Dawley rats; details: for concentration at 2 h / concentration at 8 h / concentration at 4 h: Sprague-Dawley, rat, plasma, mean n = 3, read-out: Estimated plasma concentration in rats
Method: Plasma samples were analyzed for metabolite profiles by HPLC. Aliquots of 1.5 mL plasma were mixed with 3.0 mL methanol, placed on ice for about 10 minutes, and then centrifuged. The supernatant was transferred to a clean tube. The protein pellets were extracted once with 3.0 mL methanol. The supernatants from precipitation and extraction of each sample were pooled, mixed, and evaporated at 22° C. under nitrogen in a Zymark TurboVap LV (Caliper Life Sciences, Hopkinton, Mass.) to about 0.3 mL. The concentrated extract was centrifuged, the supernatant volume measured and extraction efficiency was determined by analyzing duplicate 10 μL aliquots for radioactivity. An aliquot of the supernatant (50-200 μL) was analyzed by HPLC with radioactivity flow detection. Plasma extracts were also analyzed by LC/MS.
A Waters model 2690 HPLC system (Waters Corp., Milford, Mass.) with a built-in autosampler was used for analysis. Separations were accomplished on a Phenomenex Luna C18(2) column (150×2.0 mm, 5 μm) (Phenomenex, Torrance, Calif.). The sample chamber of the autosampler was maintained at 4° C., while the column was at ambient temperature of about 20° C. A variable wavelength UV detector set to monitor 250 nm and a Flo-One β Model A525 radioactivity detector described above were used for data acquisition. The HPLC mobile phase consisted of 10 mM ammonium acetate, pH 4.5 (A) and methanol (B), and was delivered at 0.2 mL/min. Chromatographic condition A was used for dose analysis, while condition B was used for analysis of urine and plasma, brain and fecal extracts.

[3] = Metabolites of DCDQ identified in rats by LC/MS analysis (Table 18); format: in vivo, Sprague-Dawley rats; details: P = plasma, U = urine, B = brain, F = feces
Method: An Agilent Model 1100 HPLC system (Agilent Technologies, Wilmington, Del.) including an autosampler and diode array UV detector was used for LC/MS analysis of plasma and urine samples. The UV detector was set to monitor 200 to 400 nm. For selected LC/MS analyses, radiochromatograms were acquired using a β-Ram model 3 radioactivity flow detector (IN/US Systems Inc., Tampa, Fla.) equipped with a solid scintillant flow cell. Fecal samples were also analyzed using a Waters Alliance model 2690 HPLC system. It was equipped with a built-in autosampler and a model 996 diode array UV detector set to 210-350 nm. The HPLC flow was split between a Radiomatic model 150TR flow scintillation analyzer (Perkin Elmer) and the mass spectrometer. Other HPLC conditions were the same as condition B described above.
The mass spectrometer used for metabolite characterization for plasma and urine was a Micromass Q-TOF-2 quadrupole time-of-flight hybrid mass spectrometer (Waters). The mass spectrometer was equipped with an electrospray ionization (ESI) interface and operated in the positive ionization mode. Collision energy settings of 5 and 30 eV were used for full MS and MS/MS scans, respectively. Settings for the mass spectrometer are listed below.
A Micromass Quattro Micro mass spectrometer (Waters) was also used to analyze the fecal samples. It was equipped with an electrospray ionization (ESI) interface and operated in the positive ionization mode. Settings for the mass spectrometer are listed below.
LC/MS/MS in the selected reaction-monitoring (SRM) mode (LC/SRM) was conducted with the triple quadruple mass spectrometer to monitor DCDQ and its metabolites in fecal samples. The transitions monitored are listed below.

[4] = NADPH regenerating system, 12 μM DCDQ, 20 min

[O-][N+]12CCN=Cc3cccc(c31)[C@H]1CCC[C@H]1C2 (stereo partly drawn) [Metabolite M5, DCDQ imine N-oxide]
metabolite detected in microsomal incubation [1, 4]: detected

O=C1CC[C@@H]2c3cccc4c3N(CCNC4)C[C@H]12 [Metabolite M7, 17-keto DCDQ]
concentration at 2 h ([2]; female, 2 hr): 35.6 ng/mL | concentration at 8 h ([2]; female, 8 hr): 17.5 ng/mL | concentration at 2 h ([2]; male, 2 hr): 63.6 ng/mL | concentration at 4 h ([2]; male, 4 hr): 62.1 ng/mL | concentration at 8 h ([2]; male, 8 hr): 53 ng/mL | Chromatographic distribution of radioactivity in rat plasma ([2]; female, 2 hr, mean n = 3): 5.4^d % | Chromatographic distribution of radioactivity in rat plasma ([2]; female, 8 hr, mean n = 3): 5.6% | Chromatographic distribution of radioactivity in rat plasma ([2]; male, 2 hr, mean n = 3): 10% | Chromatographic distribution of radioactivity in rat plasma ([2]; male, 4 hr, mean n = 3): 9.4% | Chromatographic distribution of radioactivity in rat plasma ([2]; male, 8 hr, mean n = 3): 12% | Matrix [3]: P, U, B

OC1CN2C[C@@H]3CCC[C@@H]3c3cccc(c32)CN1 (stereo partly drawn) [Metabolite M1, hydroxy DCDQ]
metabolite detected in microsomal incubation [1, 4]: not detected | concentration at 2 h ([2]; female, 2 hr): 12.6 ng/mL | concentration at 8 h ([2]; female, 8 hr): 6.52 ng/mL | concentration at 2 h ([2]; male, 2 hr): 88.4 ng/mL | concentration at 4 h ([2]; male, 4 hr): 59.7 ng/mL | concentration at 8 h ([2]; male, 8 hr): 41.9 ng/mL | Chromatographic distribution of radioactivity in rat plasma ([2]; female, 2 hr, mean n = 3): 2.0^d % | Chromatographic distribution of radioactivity in rat plasma ([2]; female, 8 hr, mean n = 3): 1.9^d % | Chromatographic distribution of radioactivity in rat plasma ([2]; male, 2 hr, mean n = 3): 14% | Chromatographic distribution of radioactivity in rat plasma ([2]; male, 4 hr, mean n = 3): 9.1% | Chromatographic distribution of radioactivity in rat plasma ([2]; male, 8 hr, mean n = 3): 8.9% | Matrix [3]: P, U, B

O=C(O)[C@H]1O[C@@H](OC(=O)N2CCN3C[C@@H]4CCC[C@@H]4c4cccc(c43)C2)[C@H](O)[C@@H](O)[C@@H]1O [Metabolite M6, carbamoyl glucuronide of DCDQ]
metabolite detected in microsomal incubation ([1]; UDPGA, 56 μM DCDQ): detected

OC1[C@@H]2CCC[C@@H]2c2cccc3c2N1CCNC3 (stereo partly drawn) [Metabolite M2, hydroxy DCDQ]
metabolite detected in microsomal incubation [1, 4]: observed | concentration at 8 h ([2]; female, 8 hr): 4.4 ng/mL | concentration at 2 h ([2]; male, 2 hr): 32.3 ng/mL | concentration at 4 h ([2]; male, 4 hr): 22.6 ng/mL | concentration at 8 h ([2]; male, 8 hr): 20 ng/mL | Chromatographic distribution of radioactivity in rat plasma ([2]; female, 2 hr, mean n = 3): BQL | Estimated plasma concentration in rats ([2]; female, 2 hr, mean n = 3): BQL | Chromatographic distribution of radioactivity in rat plasma ([2]; female, 8 hr, mean n = 3): 1.5^e % | Chromatographic distribution of radioactivity in rat plasma ([2]; male, 2 hr, mean n = 3): 5.2% | Chromatographic distribution of radioactivity in rat plasma ([2]; male, 4 hr, mean n = 3): 3.4% | Chromatographic distribution of radioactivity in rat plasma ([2]; male, 8 hr, mean n = 3): 4.3% | Matrix [3]: P, U

c1cc2c3c(c1)[C@H]1CCC[C@H]1CN3CCNC2 [DCDQ, (9aR,12aS)-4,5,6,7,9,9a,10,11,12,12a-decahydro-cyclopenta[c][1,4]diazepine[6,7,1-ij]quinoline, reference compound]
concentration at 2 h ([2]; female, 2 hr): 132 ng/mL | concentration at 8 h ([2]; female, 8 hr): 49.4 ng/mL | concentration at 2 h ([2]; male, 2 hr): 86.9 ng/mL | concentration at 4 h ([2]; male, 4 hr): 90.8 ng/mL | concentration at 8 h ([2]; male, 8 hr): 58.7 ng/mL | Chromatographic distribution of radioactivity in rat plasma ([2]; female, 2 hr, mean n = 3): 20% | Chromatographic distribution of radioactivity in rat plasma ([2]; female, 8 hr, mean n = 3): 15% | Chromatographic distribution of radioactivity in rat plasma ([2]; male, 2 hr, mean n = 3): 14% | Chromatographic distribution of radioactivity in rat plasma ([2]; male, 4 hr, mean n = 3): 14% | Chromatographic distribution of radioactivity in rat plasma ([2]; male, 8 hr, mean n = 3): 13% | Matrix [3]: P, U, F
